The values that follow come from ChEMBL document CHEMBL1157216, “A common protein fold topology shared by flavonoid biosynthetic enzymes and therapeutic targets” (J Nat Prod, 2006).

Experiment [1] is described as follows: Inhibition of PKA.
Experiment [2] has as its target Myosin light chain kinase, smooth muscle (Homo sapiens, UniProt Q15746). Put plainly: Inhibition of MLCK.
Experiment [3] is described as follows: Inhibition of CaM kinase.
A short description of experiment [4]: Inhibition of thymocyte protein tyrosine kinase.
Experiment [5] can be described thus: Inhibition of PKC.
Experiment [6] can be described thus: Inhibition of FGFR.
Experiment [7] can be described thus: Inhibition of PI3K.
Experiment [8] is described as follows: Inhibition of Rous sarcoma virus SRC.
In experiment [9] the target is Cyclin-dependent kinase 6 (Homo sapiens, UniProt Q00534). Put plainly: Inhibition of CDK6.
Experiment [10] is described as follows: Inhibition of CK2.
Experiment [11] can be described thus: Inhibition of PKD.
Experiment [12] is described as follows: Inhibition of CK1.
The target in experiment [13] is Epidermal growth factor receptor (Homo sapiens, UniProt P00533). Put plainly: Inhibition of EGFR.
The target in experiment [14] is Proto-oncogene tyrosine-protein kinase Src (Homo sapiens, UniProt P12931). Put plainly: Inhibition of c-Src.

Values after ≈ are worked out from the molar mass of the structure shown.

Myosin light chain kinase, smooth muscle, sequence (Q15746 whole entry): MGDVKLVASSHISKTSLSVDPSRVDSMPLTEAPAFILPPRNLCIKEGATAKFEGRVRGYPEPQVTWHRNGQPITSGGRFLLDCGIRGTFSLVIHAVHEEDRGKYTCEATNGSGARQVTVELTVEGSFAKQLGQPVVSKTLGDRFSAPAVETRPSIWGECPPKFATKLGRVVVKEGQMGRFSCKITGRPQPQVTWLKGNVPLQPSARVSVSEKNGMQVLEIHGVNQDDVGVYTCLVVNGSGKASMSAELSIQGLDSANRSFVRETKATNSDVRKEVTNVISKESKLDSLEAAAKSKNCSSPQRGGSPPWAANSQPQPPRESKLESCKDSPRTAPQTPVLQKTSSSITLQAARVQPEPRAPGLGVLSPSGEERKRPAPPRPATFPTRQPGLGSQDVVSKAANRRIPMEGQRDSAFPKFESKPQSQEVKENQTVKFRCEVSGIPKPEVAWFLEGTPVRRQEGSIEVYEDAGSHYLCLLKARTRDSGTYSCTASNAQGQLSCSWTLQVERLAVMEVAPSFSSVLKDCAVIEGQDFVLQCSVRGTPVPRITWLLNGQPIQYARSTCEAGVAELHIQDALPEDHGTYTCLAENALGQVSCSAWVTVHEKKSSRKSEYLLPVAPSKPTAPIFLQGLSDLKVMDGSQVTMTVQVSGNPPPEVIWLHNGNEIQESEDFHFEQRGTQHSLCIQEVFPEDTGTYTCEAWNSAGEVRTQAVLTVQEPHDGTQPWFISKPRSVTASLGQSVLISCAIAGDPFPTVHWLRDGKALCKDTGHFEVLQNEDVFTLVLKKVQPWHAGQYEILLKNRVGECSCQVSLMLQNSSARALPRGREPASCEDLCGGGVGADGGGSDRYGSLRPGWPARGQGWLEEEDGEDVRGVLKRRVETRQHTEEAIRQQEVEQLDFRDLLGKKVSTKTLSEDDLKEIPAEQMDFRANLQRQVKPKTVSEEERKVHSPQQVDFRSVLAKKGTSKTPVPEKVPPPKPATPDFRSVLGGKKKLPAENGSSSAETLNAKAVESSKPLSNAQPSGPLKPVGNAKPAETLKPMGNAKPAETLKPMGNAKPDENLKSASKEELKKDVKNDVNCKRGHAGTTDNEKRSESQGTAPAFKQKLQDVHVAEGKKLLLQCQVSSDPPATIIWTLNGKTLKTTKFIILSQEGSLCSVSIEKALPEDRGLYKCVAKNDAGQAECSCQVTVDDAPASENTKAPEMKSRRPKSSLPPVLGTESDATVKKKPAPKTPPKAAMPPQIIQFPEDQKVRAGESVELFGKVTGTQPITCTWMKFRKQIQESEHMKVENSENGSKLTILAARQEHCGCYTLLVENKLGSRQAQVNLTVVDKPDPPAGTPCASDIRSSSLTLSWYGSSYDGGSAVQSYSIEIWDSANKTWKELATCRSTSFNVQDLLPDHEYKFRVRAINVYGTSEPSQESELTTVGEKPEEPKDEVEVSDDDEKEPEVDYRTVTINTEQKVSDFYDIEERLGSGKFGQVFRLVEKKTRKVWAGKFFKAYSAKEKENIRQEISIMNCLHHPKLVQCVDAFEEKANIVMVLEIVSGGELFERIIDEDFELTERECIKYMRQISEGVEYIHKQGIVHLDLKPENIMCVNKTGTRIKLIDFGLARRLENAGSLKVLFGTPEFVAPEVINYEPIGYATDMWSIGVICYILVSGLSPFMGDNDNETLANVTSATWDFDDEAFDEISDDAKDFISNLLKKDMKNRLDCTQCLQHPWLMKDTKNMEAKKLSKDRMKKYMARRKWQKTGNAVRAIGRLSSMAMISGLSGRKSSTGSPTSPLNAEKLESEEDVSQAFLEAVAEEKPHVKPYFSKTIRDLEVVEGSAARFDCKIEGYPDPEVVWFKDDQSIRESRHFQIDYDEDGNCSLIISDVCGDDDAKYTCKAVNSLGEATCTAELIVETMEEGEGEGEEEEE
Epidermal growth factor receptor, sequence (P00533 whole entry): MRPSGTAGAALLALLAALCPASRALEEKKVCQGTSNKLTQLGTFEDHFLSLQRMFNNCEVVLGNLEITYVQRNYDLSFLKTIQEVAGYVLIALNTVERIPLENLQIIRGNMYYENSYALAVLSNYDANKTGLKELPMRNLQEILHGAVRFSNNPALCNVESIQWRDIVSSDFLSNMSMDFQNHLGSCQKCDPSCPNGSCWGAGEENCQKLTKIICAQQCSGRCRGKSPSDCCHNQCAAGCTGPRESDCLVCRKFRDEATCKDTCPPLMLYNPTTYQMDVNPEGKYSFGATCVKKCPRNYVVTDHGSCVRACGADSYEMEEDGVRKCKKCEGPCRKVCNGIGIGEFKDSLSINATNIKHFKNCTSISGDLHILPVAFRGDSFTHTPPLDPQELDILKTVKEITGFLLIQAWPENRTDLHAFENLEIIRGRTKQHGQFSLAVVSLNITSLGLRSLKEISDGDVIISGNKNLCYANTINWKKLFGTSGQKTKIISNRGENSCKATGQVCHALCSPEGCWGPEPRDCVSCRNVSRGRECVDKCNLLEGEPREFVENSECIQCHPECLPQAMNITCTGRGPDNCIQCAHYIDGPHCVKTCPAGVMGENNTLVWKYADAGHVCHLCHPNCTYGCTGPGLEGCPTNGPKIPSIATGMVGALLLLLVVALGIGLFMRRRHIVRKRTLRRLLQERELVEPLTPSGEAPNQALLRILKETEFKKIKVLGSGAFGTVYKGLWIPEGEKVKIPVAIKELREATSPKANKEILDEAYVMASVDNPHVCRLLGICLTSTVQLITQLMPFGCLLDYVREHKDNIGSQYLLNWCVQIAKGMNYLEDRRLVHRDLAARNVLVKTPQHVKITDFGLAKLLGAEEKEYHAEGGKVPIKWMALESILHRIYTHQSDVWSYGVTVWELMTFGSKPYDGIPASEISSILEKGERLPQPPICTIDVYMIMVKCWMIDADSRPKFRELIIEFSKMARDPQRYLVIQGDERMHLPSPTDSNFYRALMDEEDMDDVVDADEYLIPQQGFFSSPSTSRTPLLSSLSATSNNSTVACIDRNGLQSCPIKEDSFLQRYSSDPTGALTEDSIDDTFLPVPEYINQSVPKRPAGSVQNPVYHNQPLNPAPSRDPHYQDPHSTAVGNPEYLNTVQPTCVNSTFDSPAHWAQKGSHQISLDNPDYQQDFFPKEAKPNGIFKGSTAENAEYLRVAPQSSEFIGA
Proto-oncogene tyrosine-protein kinase Src, sequence (P12931 2-536 limits assumed): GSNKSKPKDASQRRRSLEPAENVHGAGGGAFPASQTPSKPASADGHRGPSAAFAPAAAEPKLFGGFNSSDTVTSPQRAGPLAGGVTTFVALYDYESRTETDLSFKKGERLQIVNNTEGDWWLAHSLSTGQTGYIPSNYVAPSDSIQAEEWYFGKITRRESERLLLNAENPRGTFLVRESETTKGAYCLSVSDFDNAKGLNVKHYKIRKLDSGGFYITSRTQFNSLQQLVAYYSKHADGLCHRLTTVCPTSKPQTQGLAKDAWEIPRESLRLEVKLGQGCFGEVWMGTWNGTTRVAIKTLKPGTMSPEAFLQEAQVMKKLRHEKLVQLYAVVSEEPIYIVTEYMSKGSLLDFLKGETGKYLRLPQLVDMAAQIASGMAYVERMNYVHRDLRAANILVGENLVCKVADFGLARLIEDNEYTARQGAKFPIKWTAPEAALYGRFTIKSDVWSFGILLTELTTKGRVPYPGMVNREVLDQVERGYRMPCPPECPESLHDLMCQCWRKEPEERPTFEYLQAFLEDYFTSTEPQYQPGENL
Cyclin-dependent kinase 6, sequence (Q00534 whole entry): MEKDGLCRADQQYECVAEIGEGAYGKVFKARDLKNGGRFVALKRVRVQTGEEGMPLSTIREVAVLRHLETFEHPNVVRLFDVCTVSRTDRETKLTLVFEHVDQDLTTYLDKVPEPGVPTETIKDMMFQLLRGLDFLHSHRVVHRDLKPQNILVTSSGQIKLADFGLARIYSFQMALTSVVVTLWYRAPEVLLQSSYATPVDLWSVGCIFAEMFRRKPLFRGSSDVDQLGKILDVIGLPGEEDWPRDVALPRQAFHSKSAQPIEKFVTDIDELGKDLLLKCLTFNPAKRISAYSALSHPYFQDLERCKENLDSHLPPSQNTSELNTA

Regarding `Oc1cc(O)cc(/C=C/c2ccc(O)c(O)c2)c1` [PICEATANNOL], the IC50 came out at 3 µM in experiment [1], 12 µM in [2], 19 µM in experiment [3] and 8 µM in experiment [5]. In experiment [4], this compound returned a Ki of 15 µM.
On to `O=c1cc(-c2ccc(O)cc2)oc2cc(O)cc(O)c12` [APIGENIN], for which the IC50 in experiment [6] is 20 µM; in experiment [7], 12 µM; in [5], 10 µM. The ID50 in [4] was determined as 90 mg/L (≈ 333 µM).
In experiment [7], `O=c1c(O)c(-c2ccc(O)c(O)c2)oc2cc(O)cc(O)c12` [QUERCETIN] displayed an IC50 of 3.8 µM and a dissociation constant Kd of 0.28 µM. The compound further yielded an ID50 in experiment [4] of 11 mg/L (≈ 36.4 µM). The compound also displayed a Ki in [8] of 6 µM.
In experiment [9], `O=C1c2ccccc2-[n+]2ccc3c([nH]c4ccccc43)c21` [FASCAPLYSIN CHLORIDE] registered an IC50 of 3.4 µM.
The compound `O=c1cc(-c2ccc(O)c(O)c2)oc2cc(O)cc(O)c12` [LUTEOLIN] registered an IC50 in [7] of 8 µM.
On to `Oc1ccc(/C=C/c2cc(O)cc(O)c2)cc1` [RESVERATROL], for which the IC50 in [10] came out at 10 µM; in [5], 90 µM; in experiment [11], 200 µM. Further, the Ki amounted to 1.2 µM in [10] and 55 µM in [5].
Regarding `O=c1c(O)c(-c2cc(O)c(O)c(O)c2)oc2cc(O)cc(O)c12` [MYRICETIN], the IC50 in experiment [10] amounted to 0.92 µM; in experiment [7], 1.8 µM. The Ki turned out to be 0.6 µM in [10]; 27.5 µM in experiment [1]; 1.7 µM in experiment [2]; 9 µM in experiment [12]; 12.1 µM in experiment [5]. The compound also came in with a Kd in experiment [7] of 0.17 µM.
In turn, `COc1c(O)cc2occ(-c3ccc(O)cc3)c(=O)c2c1O` [TECTORIGENIN] came in with an IC50 in experiment [13] of 3.3 µM.
As for `O=C(/C=C/c1ccc(O)c(O)c1)c1ccc(O)cc1O` [BUTEIN], the IC50 in [13] was found to be 8 µM; in experiment [14], 65 µM.
As for `O=c1c(O)c(-c2ccc(O)c(O)c2)oc2cc(O)ccc12` [FISETIN], the IC50 amounted to 0.35 µM in experiment [10], 10 µM in experiment [7] and 35 µM in experiment [4].
